Source: patent US8044079B2, “Substituted oxindole derivatives, medicaments containing said derivatives and use thereof” (Abbott GmbH & Co. KG, priority 2005, dated 2011)

Biological target: T1, human vasopressin V1b receptor (Homo sapiens, UniProt P47901)
T1 construct: expressed in transfected cells; host or cells: CHO-K1 (cell line hV1b_3H2_CHO), membrane preparation
T1 sequence (P47901 1-424): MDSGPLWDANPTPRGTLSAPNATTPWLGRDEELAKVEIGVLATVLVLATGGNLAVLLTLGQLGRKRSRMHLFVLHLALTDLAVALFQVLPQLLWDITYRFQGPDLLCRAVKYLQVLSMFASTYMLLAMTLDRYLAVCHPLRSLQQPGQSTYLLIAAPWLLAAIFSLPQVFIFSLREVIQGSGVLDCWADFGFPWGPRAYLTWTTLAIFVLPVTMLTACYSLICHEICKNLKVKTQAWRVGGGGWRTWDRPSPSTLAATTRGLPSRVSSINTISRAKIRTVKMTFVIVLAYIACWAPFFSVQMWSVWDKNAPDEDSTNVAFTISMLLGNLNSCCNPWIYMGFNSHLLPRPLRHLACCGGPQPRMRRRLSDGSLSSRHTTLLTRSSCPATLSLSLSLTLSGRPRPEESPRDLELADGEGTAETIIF
Assay: Vasopressin V1b receptor binding test
Conditions: membranes of CHO-K1 cells with human V1b receptor, displacement of 1.5 nM 3H-AVP; for compounds with more than one stereogenic center the diastereomer with greater affinity
In short: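 Affinity constants (Ki) came from nonlinear regression of triplicate scintillation counts after filtration separated bound from free radioligand. Compounds competed at human V1b membranes for 60 min, room temperature, in pH 7.4 tris/MgCl2/BSA buffer with 2% DMSO; 1 μM AVP defined nonspecific binding.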

| Compound | Ki [nM] |
| --- | --- |
| COc1ccc(S(=O)(=O)N2C(=O)C(c3cc(CNC(C)C)cc4c3OCO4)(N3CCC[C@H]3c3ncco3)c3cc(Cl)ccc32)cc1 (stereo partly drawn) [Example 187, 5-Chloro-3-[6-(isopropylaminomethyl)benzo[1,3]dioxol-4-yl]-1-(4-methoxybenzenesulfonyl)-3-((S)-2-oxazol-2-yl-pyrrolidin-1-yl)-1,3-dihydroindol-2-one] | < 10 |
| CCNCc1cc2c(c(C3(N4CCC[C@H]4c4ncco4)C(=O)N(S(=O)(=O)c4ccc(OC)cc4)c4ccc(Cl)cc43)c1)OCO2 (stereo partly drawn) [Example 188, 5-Chloro-3-(6-ethylaminomethylbenzo[1,3]dioxol-4-yl)-1-(4-methoxybenzenesulfonyl)-3-((S)-2-oxazol-2-yl-pyrrolidin-1-yl)-1,3-dihydroindol-2-one] | < 10 |
| CCNCc1ccc(C2(N3C[C@H](O)C[C@H]3c3ncco3)C(=O)N(S(=O)(=O)c3ccc(C#N)cc3)c3ccc(Cl)cc32)c(OC)c1 (stereo partly drawn) [Example 189, 5-Chloro-3-(4-ethylaminomethyl-2-methoxyphenyl)-3-((2S,4R)-4-hydroxy-2-oxazol-2-yl-pyrrolidin-1-yl)-1-(4-cyanobenzenesulfonyl)-1,3-dihydroindol-2 one] | 10 to 100 |
| CNCc1ccc(C2(N3C[C@H](O)C[C@H]3c3ncco3)C(=O)N(S(=O)(=O)c3ccc(C#N)cc3)c3ccc(Cl)cc32)c(OC)c1 (stereo partly drawn) [Example 190, 5-Chloro-3-((2S,4R)-4-hydroxy-2-oxazol-2-yl-pyrrolidin-1-yl)-3-(2-methoxy-4-methylaminomethylphenyl)-1-(4-cyanobenzenesulfonyl)-1,3-dihydroindol-2 one] | 10 to 100 |
| COc1ccc(S(=O)(=O)N2C(=O)C(c3cc(CN4CCC(O)CC4)ccc3OC)(N3CCC[C@H]3c3ncco3)c3cc(C#N)ccc32)cc1 (stereo partly drawn) [Example 191, 5-Cyano-3-[5-(4-hydroxypiperidin-1-ylmethyl)-2-methoxyphenyl]-1-(4-methoxybenzenesulfonyl)-3-((S)-2-oxazol-2-yl-pyrrolidin-1-yl)-1,3-dihydroindol-2-one] | < 10 |
| COc1ccc(S(=O)(=O)N2C(=O)C(c3cccc(CN4CCN(C)CC4)c3OC)(N3CCC[C@H]3c3ncco3)c3cc(Cl)ccc32)cc1 (stereo partly drawn) [Example 192, 5-Chloro-1-(4-methoxybenzenesulfonyl)-3-[2-methoxy-3-(4-methylpiperazin-1-ylmethyl)phenyl]-3-((S)-2-oxazol-2-yl-pyrrolidin-1-yl)-1,3-dihydroindol-2-one] | < 10 |
| CCN1CCN(Cc2ccc(C3(N4CCC[C@H]4c4ncco4)C(=O)N(S(=O)(=O)c4ccc(OC)cc4)c4cc(F)c(Cl)cc43)c(OC)c2)CC1 (stereo partly drawn) [Example 193, 5-Chloro-3-[4-(4-ethylpiperazin-1-ylmethyl)-2-methoxyphenyl]-6-fluoro-1-(4-methoxybenzenesulfonyl)-3-((S)-2-oxazol-2-yl-pyrrolidin-1-yl)-1,3-dihydroindol-2-one] | < 10 |
| COc1ccc(S(=O)(=O)N2C(=O)C(c3cccc(CN(C)C)c3OC)(N3CCC[C@H]3c3ncco3)c3cc(Cl)ccc32)cc1 (stereo partly drawn) [Example 194, 5-Chloro-3-(3-dimethylaminomethyl-2-methoxyphenyl)-1-(4-methoxybenzenesulfonyl)-3-((S)-2-oxazol-2-yl-pyrrolidin-1-yl)-1,3-dihydroindol-2-one] | 10 to 100 |
| COc1ccc(S(=O)(=O)N2C(=O)C(c3cccc(CN4CCCC4)c3OC)(N3CCC[C@H]3c3ncco3)c3cc(Cl)ccc32)cc1 (stereo partly drawn) [Example 195, 5-Chloro-1-(4-methoxybenzenesulfonyl)-3-(2-methoxy-3-pyrrolidin-1-ylmethylphenyl)-3-((S)-2-oxazol-2-yl-pyrrolidin-1-yl)-1,3-dihydroindol-2-one] | 100 to 1000 |
| COc1cc(CN2CCN(CCO)CC2)ccc1C1(N2CCC[C@H]2c2ncco2)C(=O)N(S(=O)(=O)c2ccc(C#N)cc2)c2ccc(Cl)cc21 (stereo partly drawn) [Example 197, 5-Chloro-1-(4-cyanobenzenesulfonyl)-3-{4-[4-(2-hydroxyethyl)piperazin-1-ylmethyl]-2-methoxyphenyl}-3-((S)-2-oxazol-2-yl-pyrrolidin-1-yl)-2,3-dihydroindol-2-one] | 10 to 100 |
| COc1ccc(S(=O)(=O)N2C(=O)C(c3cc(CN4CCN(C)CC4)ccc3OC)(N3CCC[C@H]3c3ncco3)c3cc(Cl)c(F)cc32)cc1 (stereo partly drawn) [Example 198, 5-Chloro-6-fluoro-1-(4-methoxybenzenesulfonyl)-3-[2-methoxy-5-(4-methylpiperazin-1-ylmethyl)phenyl]-3-((S)-2-oxazol-2-yl-pyrrolidin-1-yl)-1,3-dihydroindol-2-one] | < 10 |
| CCN1CCN(Cc2ccc(C3(N4CCC[C@H]4c4ncco4)C(=O)N(S(=O)(=O)c4ccc(OC)cc4)c4ccc(Cl)c(F)c43)c(OC)c2)CC1 (stereo partly drawn) [Example 199, 5-Chloro-3-[4-(4-ethylpiperazin-1-ylmethyl)-2-methoxyphenyl]-4-fluoro-1-(4-methoxybenzenesulfonyl)-3-((S)-2-oxazol-2-yl-pyrrolidin-1-yl)-1,3-dihydroindol-2-one] | < 10 |
| COc1ccc(S(=O)(=O)N2C(=O)C(c3cc(CN4CCNCC4)ccc3OC)(N3CCC[C@H]3c3ncco3)c3cc(Cl)c(F)cc32)cc1 (stereo partly drawn) [Example 200, 5-Chloro-6-fluoro-1-(4-methoxybenzenesulfonyl)-3-(2-methoxy-5-piperazin-1-ylmethylphenyl)-3-((S)-2-oxazol-2-yl-pyrrolidin-1-yl)-1,3-dihydroindol-2-one] | < 10 |
| COc1ccc(S(=O)(=O)N2C(=O)C(c3ccc(CN4CCN(C)CC4)cc3OC)(N3CCC[C@H]3c3ncco3)c3cc(Cl)c(F)cc32)cc1 (stereo partly drawn) [Example 201, 5-Chloro-6-fluoro-1-(4-methoxybenzenesulfonyl)-3-[2-methoxy-4-(4-methylpiperazin-1-ylmethyl)phenyl]-3-((S)-2-oxazol-2-yl-pyrrolidin-1-yl)-1,3-dihydroindol-2-one] | < 10 |
| CCOc1ccc(CN2CCN(C)CC2)cc1C1(N2CCC[C@H]2c2ncco2)C(=O)N(S(=O)(=O)c2ccc(OC)cc2)c2ccc(Cl)cc21 (stereo partly drawn) [Example 202, 5-Chloro-3-[2-ethoxy-5-(4-methylpiperazin-1-ylmethyl)phenyl]-1-(4-methoxybenzenesulfonyl)-3-((S)-2-oxazol-2-yl-pyrrolidin-1-yl)-1,3-dihydroindol-2-one] | 10 to 100 |

More lines, now with the values ahead:

| Ki [nM] | Compound |
| --- | --- |
| 10 to 100 | CCOc1ccc(CNC)cc1C1(N2CCC[C@H]2c2ncco2)C(=O)N(S(=O)(=O)c2ccc(OC)cc2)c2ccc(Cl)cc21 (stereo partly drawn) [Example 203, 5-Chloro-3-(2-ethoxy-5-methylaminomethylphenyl)-1-(4-methoxybenzenesulfonyl)-3-((S)-2-oxazol-2-yl-pyrrolidin-1-yl)-1,3-dihydroindol-2-one] |
| 10 to 100 | CCOc1ccc(CN(C)C)cc1C1(N2CCC[C@H]2c2ncco2)C(=O)N(S(=O)(=O)c2ccc(OC)cc2)c2ccc(Cl)cc21 (stereo partly drawn) [Example 204, 5-Chloro-3-(5-dimethylaminomethyl-2-ethoxyphenyl)-1-(4-methoxybenzenesulfonyl)-3-((S)-2-oxazol-2-yl-pyrrolidin-1-yl)-1,3-dihydroindol-2-one] |
| 10 to 100 | CCOc1ccc(CNC(C)C)cc1C1(N2CCC[C@H]2c2ncco2)C(=O)N(S(=O)(=O)c2ccc(OC)cc2)c2ccc(Cl)cc21 (stereo partly drawn) [Example 205, 5-Chloro-3-[2-ethoxy-5-(isopropylaminomethyl)phenyl]-1-(4-methoxybenzenesulfonyl)-3-((S)-2-oxazol-2-yl-pyrrolidin-1-yl)-1,3-dihydroindol-2-one] |
| 10 to 100 | CCNCc1ccc(OCC)c(C2(N3CCC[C@H]3c3ncco3)C(=O)N(S(=O)(=O)c3ccc(OC)cc3)c3ccc(Cl)cc32)c1 (stereo partly drawn) [Example 206, 5-Chloro-3-(2-ethoxy-5-ethylaminomethylphenyl)-1-(4-methoxybenzenesulfonyl)-3-((S)-2-oxazol-2-yl-pyrrolidin-1-yl)-1,3-dihydroindol-2-one] |
| < 10 | COc1ccc(S(=O)(=O)N2C(=O)C(c3cc(CN4CCN(C)CC4)ccc3OC)(N3CCC[C@H]3c3ncon3)c3cc(Cl)ccc32)cc1 (stereo partly drawn) [Example 207, 5-Chloro-1-(4-methoxybenzenesulfonyl)-3-[2-methoxy-5-(4-methylpiperazin-1-ylmethyl)phenyl]-3-((S)-2-[1,2,4]oxadiazol-3-yl-pyrrolidin-1-yl)-1,3-dihydroindol-2-one] |
| 10 to 100 | COc1ccc(S(=O)(=O)N2C(=O)C(c3cc(CN4CCNCC4)ccc3OC)(N3CCC[C@H]3c3ncon3)c3cc(Cl)ccc32)cc1 (stereo partly drawn) [Example 208, 5-Chloro-1-(4-methoxybenzenesulfonyl)-3-(2-methoxy-5-piperazin-1-ylmethylphenyl)-3-((S)-2-[1,2,4]oxadiazol-3-yl-pyrrolidin-1-yl)-1,3-dihydroindol-2-one] |
| < 10 | COc1ccc(S(=O)(=O)N2C(=O)C(c3cc(CN(C)C)ccc3OC)(N3CCC[C@H]3c3ncon3)c3cc(Cl)ccc32)cc1 (stereo partly drawn) [Example 209, 5-Chloro-3-(5-dimethylaminomethyl-2-methoxyphenyl)-1-(4-methoxybenzenesulfonyl)-3-((S)-2-[1,2,4]oxadiazol-3-yl-pyrrolidin-1-yl)-1,3-dihydroindol-2-one] |
| < 10 | COc1ccc(S(=O)(=O)N2C(=O)C(c3cc(CN4CCCC4)ccc3OC)(N3CCC[C@H]3c3ncon3)c3cc(Cl)ccc32)cc1 (stereo partly drawn) [Example 210, 5-Chloro-1-(4-methoxybenzenesulfonyl)-3-(2-methoxy-5-pyrrolidin-1-ylmethylphenyl)-3-((S)-2-[1,2,4]oxadiazol-3-yl-pyrrolidin-1-yl)-1,3-dihydroindol-2-one] |
